Here are results for 2 compounds from US10011573B2, “Human androgen receptor DNA-binding domain (DBD) compounds as therapeutics and methods for their use” (The University of British Columbia, priority 2014, dated 2018).

The IC50 is the midpoint of a concentration-inhibition curve. A high value points to a need for much substance. Usually inhibition stands for the change of the read-out against control, counted positive when it falls.

One assay deals with AR Q592A mutant (Homo sapiens, UniProt P10275, Q592A). The assay can be described thus: ARR3tk-luciferase reporter assay in PC3 cells, AR Q592A. (Reporter assays use an easily measured gene product as a stand-in for the process of interest.)
The next assay has as its target T1, AR Y594D mutant (Homo sapiens, UniProt P10275, Y594D).
T1 construct: expressed in transfected cells; host or cells: PC3
The assay can be described thus: ARR3tk-luciferase reporter assay in PC3 cells, AR Y594D. Type of assay: cell-based. The procedure: 8. Mutation Studies: The residues in the predicted binding site were mutated using the Quickchange™ Site-Directed Mutagenesis Kit as per the instructions.
9. Transient Transfection: The PC3/MCF7 cells were seeded into a 96-well plate (2,000 cells/well). After 24 hrs, the wild-type AR (50 ng/well)/AR mutants and AR3TK-luciferase plasmids (1:3) were co-transfected into PC3 cells or ERE-luciferase (50 ng/well) was transfected into MCF7 cells using transfection reagent TT20. 24 hrs after the transfection, the cells were treated with the compounds at various concentrations. And 24 hrs later, the cells were lysed and the reading was taken using a luminometer.

The next assay deals with T2, androgen receptor (AR) (Homo sapiens, UniProt P10275, T878A).
T2 sequence (P10275 1-920 T878A): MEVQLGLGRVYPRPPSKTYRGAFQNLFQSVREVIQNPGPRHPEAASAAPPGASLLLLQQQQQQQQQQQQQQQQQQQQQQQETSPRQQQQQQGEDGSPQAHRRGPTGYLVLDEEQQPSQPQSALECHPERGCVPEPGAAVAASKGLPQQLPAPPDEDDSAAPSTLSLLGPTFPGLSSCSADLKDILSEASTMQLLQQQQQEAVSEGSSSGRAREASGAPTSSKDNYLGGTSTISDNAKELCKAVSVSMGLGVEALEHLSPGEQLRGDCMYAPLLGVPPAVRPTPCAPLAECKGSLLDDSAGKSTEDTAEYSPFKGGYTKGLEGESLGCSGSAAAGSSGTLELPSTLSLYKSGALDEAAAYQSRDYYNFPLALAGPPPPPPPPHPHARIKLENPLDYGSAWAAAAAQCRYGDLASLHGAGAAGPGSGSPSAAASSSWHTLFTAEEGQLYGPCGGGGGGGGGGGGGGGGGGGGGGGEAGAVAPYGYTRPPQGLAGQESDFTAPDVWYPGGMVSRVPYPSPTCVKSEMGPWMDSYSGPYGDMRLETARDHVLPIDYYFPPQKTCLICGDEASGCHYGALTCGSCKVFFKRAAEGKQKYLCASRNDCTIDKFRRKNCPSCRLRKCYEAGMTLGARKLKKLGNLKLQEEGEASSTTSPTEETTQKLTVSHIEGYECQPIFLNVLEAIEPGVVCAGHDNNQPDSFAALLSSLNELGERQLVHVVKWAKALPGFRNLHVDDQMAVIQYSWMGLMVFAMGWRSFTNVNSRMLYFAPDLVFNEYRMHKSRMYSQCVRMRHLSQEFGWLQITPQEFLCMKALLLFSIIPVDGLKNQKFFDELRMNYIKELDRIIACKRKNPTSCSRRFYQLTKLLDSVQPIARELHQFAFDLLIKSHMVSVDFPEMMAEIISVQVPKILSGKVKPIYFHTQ
The assay can be described thus: eGFP cellular AR transcription assay (LNCaP eGFP cells, LN-ARR2PB-eGFP).

The next assay deals with FKBP5. Briefly: Western blot FKBP5 protein in R1-AD1 cells. Type of assay: cell-based, human. The procedure: Cell lysates (40 μl) from luciferase assays (96-well plate) were separated on a 10% SDS-polyacrylamide mini gel. Protein was transferred to methanol-charged PVDF membranes and probed with anti-AR441 (mouse, Sigma™) monoclonal primary antibody. Blots were also probed with polyclonal anti-actin (rabbit, Sigma™) to show equal loading and polyclonal anti-PARP/anti-cleaved PARP (rabbit, Sigma™) to test for induction of apoptosis. Lysates from CWR-R1 cells were additionally probed with polyclonal anti-FKBP5 (rabbit, Sigma™) following 2 days of incubation with compounds.

The target in the next assay is T3, AR-DBD+hinge / ARE dsDNA (Homo sapiens, UniProt P10275).
T3 sequence (P10275 558-689): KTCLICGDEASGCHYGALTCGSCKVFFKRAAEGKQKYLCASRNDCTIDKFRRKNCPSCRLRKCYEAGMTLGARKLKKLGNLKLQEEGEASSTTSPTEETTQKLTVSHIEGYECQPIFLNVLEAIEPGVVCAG
The assay can be described thus: Biolayer interferometry analysis of dsDNA (ARE) association with biotinylated AR-DBD+hinge. Particulars: 50 μM compound. Further details: His tag (C); made in house; host or cells: E. coli BL21 co-transformed with biotin ligase vector (pBir-Acm). It counts as binding. Here is the method: The plasmid encoding the AR-DBD+hinge was transformed into BL21 (DE3). BL21 cells designated for expression of biotin-labeled AR-DBD+hinge were co-transformed with the Pan4 AR-DBD+hinge (ampicillin selection) and biotin ligase expression vectors (pBir-Acm, chloramphenicol selection). Single colonies were grown in 2 liters of LB media supplemented with 50 μg/ml ampicillin and 35 μg/ml chloramphenicol (where appropriate) to A600 nm=0.6 before induction with 0.1 mM isopropyl β-D-1-thiogalactopyranoside for 3 h at 37° C. Cultures expressing the AR-DBD with the biotinylation sequence were simultaneously supplemented with 0.150 mM biotin during the induction step. Cell pellets were resuspended in ˜20 ml of 50 mM Tris-HCl, pH 8.0, 300 mM NaCl, 5% glycerol (Buffer A) supplemented with 10 mM imidazole and incubated with 0.1 mg/ml chicken egg white lysozyme (Sigma™) and 0.1 mM PMSF protease inhibitor for 30 min on ice. Cell lysis was achieved by sonication, followed by centrifugation at 13,000×g for 30 min at 4° C. The supernatant was rotated with 2 ml of nickel-agarose beads (GE Healthcare™) for 1 h at 4° C. and then directly loaded onto a Poly-Prep 10-ml gravity chromatography column (Bio-Rad™). Washing was performed with 2×4 ml of Buffer A supplemented with 20 mM imidazole. Pure proteins were eluted in 500-μl fractions with 2 ml of Buffer A containing 250 mM imidazole.
Biolayer interferometry analysis on a ForteBio Octet Red™ instrument was carried out using biotinylated AR-DBD+hinge in Buffer A with 5% DMSO throughout all experiments. The DBD (0.1 mg/ml) was loaded onto streptavidin sensors in 200 μl of buffer for 30 min, followed by blocking of free streptavidin sites with biocytin (10 μg/ml) for 10 min. DBD-loaded sensors were then pre-equilibrated in 50 μM compound or 5% DMSO alone for 100 s in the same buffer. The kinetics of DNA association were monitored by moving sensors into wells containing dsDNA (ARE, 3 μM) supplemented with 50 μM compound for 120 s. This was followed by dissociation in buffer+compound, but lacking DNA, for an additional 120 s. Biocytin-blocked control sensors (no AR-DBD) were subjected to the same experimental conditions, and nonspecific interactions with dsDNA were subtracted from each curve.
On the technique in general: BLI is a label-free optical method that tracks binding on a fibre tip over time.

Where [1] appears, read: eGFP IC50, LNCaP eGFP cells, 0.1 nM R1881.

T1 sequence (P10275 whole entry Y594D): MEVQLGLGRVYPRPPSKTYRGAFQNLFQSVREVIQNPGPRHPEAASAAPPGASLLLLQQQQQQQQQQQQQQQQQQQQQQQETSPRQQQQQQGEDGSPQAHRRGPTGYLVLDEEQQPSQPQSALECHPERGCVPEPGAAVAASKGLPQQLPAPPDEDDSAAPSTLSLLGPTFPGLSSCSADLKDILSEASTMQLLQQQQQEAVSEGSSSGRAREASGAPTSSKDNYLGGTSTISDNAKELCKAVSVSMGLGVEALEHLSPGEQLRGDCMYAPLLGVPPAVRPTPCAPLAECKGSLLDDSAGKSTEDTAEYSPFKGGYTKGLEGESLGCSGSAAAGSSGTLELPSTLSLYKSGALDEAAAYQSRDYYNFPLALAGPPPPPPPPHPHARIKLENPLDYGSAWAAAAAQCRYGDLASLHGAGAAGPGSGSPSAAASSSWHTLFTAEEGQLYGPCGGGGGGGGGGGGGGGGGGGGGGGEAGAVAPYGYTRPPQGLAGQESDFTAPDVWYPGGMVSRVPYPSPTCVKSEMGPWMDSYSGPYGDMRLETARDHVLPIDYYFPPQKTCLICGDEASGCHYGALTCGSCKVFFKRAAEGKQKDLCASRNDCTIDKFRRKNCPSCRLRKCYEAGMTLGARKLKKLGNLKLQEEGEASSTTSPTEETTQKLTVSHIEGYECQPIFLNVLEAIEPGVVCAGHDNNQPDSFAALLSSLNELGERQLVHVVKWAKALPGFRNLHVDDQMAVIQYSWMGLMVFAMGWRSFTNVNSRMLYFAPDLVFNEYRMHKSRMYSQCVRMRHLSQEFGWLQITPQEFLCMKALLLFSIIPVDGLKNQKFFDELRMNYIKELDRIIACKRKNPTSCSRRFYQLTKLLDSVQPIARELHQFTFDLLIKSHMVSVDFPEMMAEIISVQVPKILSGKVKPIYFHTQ
Chain of AR Q592A mutant (P10275 whole entry Q592A): as the sequence (P10275 whole entry Y594D) above, with Q592A, D594Y counted along it
Procedure for AR Q592A mutant: Cells were then treated with compounds at various concentrations and 0.1 nMR1881 (in 100% ethanol) for 24 h. […] Cell lysis was carried out with 60 μl of 1X passive lysis buffer/well (Promega™)
20 μl of cell lysate from each well were mixed with 50 μl of luciferase assay reagent (Promega™), and luminescence was recorded on a TECAN™ M200pro plate reader. Luciferase assays with splice variant AR were performed the same way but with only 5 ng of pcDNA3.1 AR-V7 (to limit the high level of AR-V7 expression) and no R1881.

Consider `Brc1ncn(-c2csc(N3CCOCC3)n2)c1Br` [Compound 14449], for which the IC50 on AR Q592A mutant is 3 to 6 µM; against androgen receptor (AR) (eGFP IC50 (μM), Series 1), 0.1 µM; on androgen receptor (AR) (setting [1]) it was 0.12 ± 0.01 µM. Moreover, the “concentration at which Y594D AR is inhibited” value at AR Y594D mutant (PC3 cells) was ≥ 25 µM. Also, at androgen receptor (AR), the “fold improved activities compared to compound 6 (14228)” value is reported as 2 fold. The “FKBP5 protein expression, R1-AD1 cells” value in the assay on FKBP5 was “reduced”. The “dsDNA dissociation from AR-DBD” value on AR-DBD+hinge / ARE dsDNA is recorded as “relatively unchanged”. Further, at AR-DBD+hinge / ARE dsDNA, the “rate of dsDNA association with AR-DBD” value is reported as “significantly slower rate of dsDNA binding”.
In the case of `c1ccc(-c2csc(N3CCOCC3)n2)cc1` [Compound 14228, 4-(4-phenylthiazol-2-yl)morpholine], the IC50 at AR Q592A mutant is 3 to 6 µM; on androgen receptor (AR) (eGFP IC50 (μM), Series 1), 0.33 µM; on androgen receptor (AR) (setting [1]), 0.274 µM. Further, at AR Y594D mutant, the “inhibition of Y594D AR luciferase expression” value is recorded as “not affected”. In addition, on androgen receptor (AR) (LNCaP, read-out: % Inhibition (3 μM)), the inhibition at 3 µM came to 110%. The “FKBP5 protein expression, R1-AD1 cells” value in the assay on FKBP5 is recorded as “reduced”. Besides, the “dsDNA dissociation from AR-DBD” value at AR-DBD+hinge / ARE dsDNA is “relatively unchanged”. Besides, the “rate of dsDNA association with AR-DBD” value on AR-DBD+hinge / ARE dsDNA was “significantly slower rate of dsDNA binding”.
